The source made the active and inactive calls.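 The calls were made as follows: active = compounds giving half or more protection of infected cells from virus-caused growth loss, again on retest; inactive = the rest.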
Test system: CEM cells HIV-1 protection, formazan growth assay
Assay: NCI AIDS Antiviral Assay
Conditions: for IC50: measured here: growth of uninfected CEM cells
Procedure, shortened: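 Soluble formazan readout of cell growth; CEM cells ± HIV-1; 5 drug concs. ≥50% protection → retest; ≥50% again = moderately active; reproducible 100% = confirmed active.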

SMILES | EC50 | IC50 | outcome
NC(N)=NNC(=O)CCCCCCCC(=O)NN=C(N)N | 537 µM | 676 µM | –
CNC(=O)c1ccccc1CNC(=S)Nc1cccc(C)c1 | > 200 µM | > 200 µM | –
CC1=C(\C=C/C(C)=C/C=C/C(C)=C/C=C/C=C(C)\C=C\C=C(C)/C=C/C2=C(C)CCCC2(C)C)C(C)(C)CCC1 | > 200 µM | 97.7 µM | –
Cc1nc2sc(C(=O)c3ccc(Cl)cc3)c(N)c2c(-c2ccccc2Cl)c1C(=O)Nc1ccccc1 | > 200 µM | 3.02 µM | –
COC(=O)C[C@@H]1C(C)(C)[C@@H]2O[C@@]34C[C@@H]2C(=O)[C@]1(C)[C@H]3CC[C@@]1(C)[C@H](c2ccoc2)OC(=O)C[C@]14O | > 200 µM | 120 µM | –
N#CCCN(CCC#N)c1ccc(/C=C2\N=C(c3ccccc3)N(c3ccc(C(=O)O)cc3)C2=O)cc1 | > 200 µM | 33.9 µM | –
CCOc1ccccc1NC(=O)C1=C(C)NC(C)=C(C(=O)Nc2ccccc2OCC)C1c1ccc([N+](=O)[O-])cc1 | > 9.33 µM | > 9.33 µM | –
CCSCC1OC2OC3C(CSCC)OC(OC4C(CSCC)OC(OC5C(CSCC)OC(OC6C(CSCC)OC(OC7C(CSCC)OC(OC8C(CSCC)OC(OC1C(OS(=O)(=O)O)C2OS(=O)(=O)O)C(OS(=O)(=O)O)C8OS(=O)(=O)O)C(OS(=O)(=O)O)C7OS(=O)(=O)O)C(OS(=O)(=O)O)C6OS(=O)(=O)O)C(OS(=O)(=O)O)C5OS(=O)(=O)O)C(OS(=O)(=O)O)C4OS(=O)(=O)O)C(OS(=O)(=O)O)C3OS(=O)(=O)O (centres undefined) | 2.75 µM | 50.1 µM | –
CCN(CC)CCn1c2cc3c(cc2c(=O)c2cccnc21)OCO3 | > 200 µM | 7.94 µM | –
CCN1CCC(O)(c2ccccc2)C(C(=O)c2ccccc2)C1 (centres undefined) | > 646 µM | 33.9 µM | –
Cc1cc(CC(O)c2ccc(Cl)c(Cl)c2)nc(=O)[nH]1 (centres undefined) | > 9.12 µM | > 9.12 µM | –
CC(=O)Nc1ccc(/C=c2\sc3nnc(CCC(=O)Nc4ccccc4Cl)n3c2=O)cc1 | > 28.8 µM | > 28.8 µM | –
C[C@@H](c1ccccc1)C(CC#N)[C@H]1CCC[C@]1(O)C#Cc1ccc2c(c1)OCO2 (some centres undefined) | > 200 µM | 11.5 µM | –
CCN(CC)C1=Nc2ccccc2-n2c(C)cnc2C1 | > 200 µM | > 200 µM | –
CCN(CC)Cc1c(C(=O)NCCO)[n+](=O)c2ccccc2n1[O-] | > 178 µM | > 178 µM | –
CCOC(=O)CC1C(O)C(=O)N(C)C1c1ccccc1 (centres undefined) | – | – | inactive
Cc1nnc(SCC2=C(C(=O)O)N3C(=O)C(NC(=O)Cn4cnnn4)C3SC2)s1 (centres undefined) | > 200 µM | > 200 µM | –
N#CS/C(C(Cl)=C(Cl)Cl)=C(/Cl)[N+](=O)[O-] | > 200 µM | 8.32 µM | –
O=c1[nH][nH]c(=O)c2nc(Nc3ccco3)ncc12 | > 240 µM | > 240 µM | –
COC(=O)/C=C1/Nc2c(n(C)c(=O)n(C)c2=O)NC1=O | > 200 µM | > 200 µM | –
CC(=O)c1c(O)c2ccccc2oc1=O | > 200 µM | 120 µM | –

SMILES | EC50 | IC50 | outcome
C/C(=N\N)C(CN1CCOCC1)C(c1ccccc1)c1c(O)c2ccccc2oc1=O (centres undefined) | > 89.1 µM | 85.1 µM | –
CCOC(=O)C1NCCc2c1[nH]c1ccccc21 (centres undefined) | > 67.6 µM | 44.7 µM | –
CC(=O)NC(/C=C\C(=O)O)C(=O)O (centres undefined) | > 200 µM | > 200 µM | –
O=C(O)c1cc(=O)c2c([nH]c3ccccc32)s1 | – | – | inactive
N#CCCN(CCCN(C(=O)N(c1ccccc1)c1ccccc1)c1ccccc1)C(=O)Nc1ccccc1 | > 200 µM | 10.5 µM | –
O=[N+]([O-])c1cc(Cl)cc2cc(Cl)cnc12 | > 200 µM | > 200 µM | –
CC(=O)OC(C)(C)CCC(=O)[C@](C)(O)[C@H]1[C@H](O)C[C@@]2(C)[C@@H]3CCc4c(cc(OC5OC(CO)C(O)C(O)C5O)c(O)c4C)C3(C)C(=O)C[C@]12C (some centres undefined) | > 200 µM | > 200 µM | –
O=c1nc(NC(c2ccccc2)(c2ccccc2)c2ccccc2)ccn1CCO | – | – | inactive
Cc1ccc(Cc2cc(N3CCN(c4cccc(Cl)c4)CC3)nnc2C)cc1 | > 100 µM | 16.6 µM | –
COC(=O)C1CN=CN1CCc1ccccc1 (centres undefined) | > 200 µM | > 200 µM | –
CN(C)C=Nc1nc(=O)n(C2CCC(CO)O2)cc1F (centres undefined) | 0.0676 µM | 95.5 µM | –
c1ccc2sc(SN3CCOCC3)nc2c1 | > 10.7 µM | > 10.7 µM | –
Cc1nn(C(=O)c2ccccc2O)c2c1C(c1ccccc1)SC(N)=N2 (centres undefined) | > 2 µM | 0.417 µM | –
Nc1c(-c2ccccc2)oc2ccccc2c1=O | > 200 µM | > 200 µM | –
COc1ccc2oc(=O)c(CC=C(C)C)c(O)c2c1C | > 200 µM | > 100 µM | –
Nc1ccc(S(=O)(=O)c2ccc(N)cc2)cc1 | – | – | inactive
CC(C)C(=O)Nc1nc2c(ncn2C2OC(CO)C(O)C2O)c(=O)[nH]1 (centres undefined) | > 708 µM | 513 µM | –
COc1ccc(/C=C/C(=O)c2sc(-n3nc(-c4ccccc4)cc3-c3ccccc3)nc2C)cc1 | > 11 µM | > 11 µM | –
CCOC(=O)C(C)c1nc2cc(F)c(N3CCOCC3)cc2[nH]c1=O (centres undefined) | > 200 µM | 95.5 µM | –
Cc1ccc(S(=O)(=O)N/N=C2/CCCOC2)cc1 | > 200 µM | 138 µM | –
CCOc1ccc(N=C(NC(=O)c2ccccc2)SC)cc1 | > 22.4 µM | > 22.4 µM | –

SMILES | EC50 | IC50 | outcome
Clc1cccc2nncc(N3CC3)c12 | – | – | inactive
O=C(Nc1cccc(O)c1)C(=O)C1C(=O)NC(=S)NC1=O | > 813 µM | > 813 µM | –
CN1C(CCl)Nc2cc(Cl)c(S(N)(=O)=O)cc2S1(=O)=O (centres undefined) | > 363 µM | 64.6 µM | –
NC(CSP(=O)(O)O)=NCC12CC3CC(CC(C3)C1)C2 | – | – | inactive
CCOc1ccccc1NC(=O)C(=O)C(c1ccccc1)S(=O)(=O)Cc1ccccc1 (centres undefined) | > 200 µM | 120 µM | –
CC(C)(C)[Si](C)(C)OCC1OC(n2ccc(=O)[nH]c2=O)C(CCN(O)CC2OC(n3ccc(=O)[nH]c3=O)C(O[Si](C)(C)C(C)(C)C)C2O[Si](C)(C)C(C)(C)C)C1O[Si](C)(C)C(C)(C)C (centres undefined) | > 126 µM | 105 µM | –
COc1ccc(OC)c(/C=C/c2cnnc3ccccc23)c1 | > 64.6 µM | 3.16 µM | –
NC(=O)N/N=C1\CCCc2ccccc21 | > 178 µM | > 178 µM | –
c1ccc2c(c1)[nH]c1c2nc2ncccn21 | – | – | inactive
CC(=O)Oc1cc(OC(C)=O)c2c(C)cc(=O)oc2c1 | > 200 µM | 148 µM | –
CCCCN(O)[C@@H]1CC(n2cc(C)c(=O)[nH]c2=O)OC1CO[Si](C)(C)C(C)(C)C (some centres undefined) | > 200 µM | 83.2 µM | –
O=C1C=CC(=O)c2c(O)ccc(O)c21 | > 200 µM | 3.89 µM | –
CCOP(=O)(OCC)/C(C#N)=C\c1ccsc1 | > 912 µM | > 912 µM | –
C=C(NC(=O)C(=C)NC(=O)c1ccc2c(n1)-c1coc(n1)C(=C)NC(=O)C(=C)NC(=O)c1nc(oc1C)C(=C)NC(=O)C(C(C)(C)O)NC(=O)C(=C)NC(=O)c1coc(n1)/C(=C/C)NC(=O)[C@H]([C@@H](C)O)NC(=O)c1csc-2n1)C(N)=O (some centres undefined) | > 100 µM | > 100 µM | –
O=C(Oc1ccccc1)N(CCO)C(c1ccccc1)C(O)c1ccccc1 (centres undefined) | > 200 µM | 5.25 µM | –
C[C@H]1OC(=O)[C@@H]2N=NN(Cc3ccccc3)[C@H]12 | – | – | inactive
CCOC(=O)CN1C(=O)S/C(=C2\C(=O)N(C)c3ccccc32)C1=O | > 200 µM | > 200 µM | –
O=S(=O)(O)C1CC2NC3C4CCCC(S(=O)(=O)O)C4C(Nc4ccccc4)CC3N(c3ccccc3)C2CC1Nc1ccccc1 (centres undefined) | 56.2 µM | > 100 µM | –
C=C1CC(c2ccc(OCCCN3C(=O)c4ccccc4C3=O)c(OC)c2)OC1=O (centres undefined) | > 20 µM | 0.912 µM | –
CO[C@](C(=O)OC[C@H]1[C@@H](COC(C)=O)[C@@H]2O[C@H]1c1cc3c(cc12)OCO3)(c1ccccc1)C(F)(F)F | > 200 µM | 7.59 µM | –
Cc1noc2cccc(OCc3ccccc3)c12 | > 30.2 µM | > 30.2 µM | –

SMILES | EC50 | IC50 | outcome
CCOC(=O)NC(=O)c1cn(CC(=O)NCC(=O)NCC(=O)N2CCN(CCn3c(C)nc(C(N)=O)c3N)CC2)c(=O)[nH]c1=O | – | – | inactive
CN(C)c1ccc(/C=N/n2c(-c3ccccc3)nc3ccccc3c2=O)cc1 | > 200 µM | 33.9 µM | –
CC1=C(CC2C(=O)N(c3ccccc3)S(=O)(=O)NC2C)C(=O)N(c2ccccc2)S(=O)(=O)N1C (centres undefined) | > 490 µM | 16.6 µM | –
CCC[CH2][Sn]1([CH2]CCC)[O]CC([CH2][Sn]([c]2ccccc2)([c]2ccccc2)[c]2ccccc2)[O]1 (centres undefined) | > 3.98 µM | 0.0234 µM | –
C/C(=C\c1ccccc1)C(=O)c1c(C)cc(C)cc1C | > 38 µM | > 38 µM | –
NCCN(CCN)/[N+]([O-])=N/O | > 200 µM | > 200 µM | –
CN(C)C(=S)SSC(C)(C)C | > 200 µM | 8.32 µM | –
CC12C(C(=O)O)C(=O)C(C(=O)O)C1(C)C(C(=O)O)C(=O)C2C(=O)O (centres undefined) | > 525 µM | 398 µM | –
CCOC(=O)CC(C(=O)OCC)S(=O)(=O)O (centres undefined) | > 200 µM | > 200 µM | –
OC(c1ccsc1)c1ccsc1 | > 200 µM | > 200 µM | –
COC(=O)c1cc2c3ccccc3n(C(C)=O)c2cn1 | – | – | inactive
S=c1n(-c2ccc(Cl)cc2)c2nc3ccccc3nc(/c2=N\Nc2cc(Cl)ccc2Cl)n1-c1ccccn1 | > 200 µM | 18.2 µM | –
CC[C@H]1CN(C)[C@H]2Cc3c([nH]c4ccccc34)C(=O)C[C@H]1C2C(=O)OC (some centres undefined) | > 129 µM | > 129 µM | –
CCO[C@@H]1OC(=O)[C@H]2C(c3ccccc3Cl)=NO[C@@H]12 | > 178 µM | > 178 µM | –
O=C(CC(C(=O)c1cccs1)c1cccs1)c1ccsc1 (centres undefined) | > 200 µM | 11.7 µM | –
O=C(O)[C@@H]1[C@H](OCc2ccccc2)[C@H](OCc2ccccc2)CN1C(=O)OCc1ccccc1 | > 200 µM | 115 µM | –
C=Cc1cncc(C#N)c1CCc1c(C#N)cncc1C=C | > 34.7 µM | > 34.7 µM | –
CC12CCC3[C@@H](CC3(C)C)C(O)(CCC1=O)C2 (some centres undefined) | > 200 µM | > 200 µM | –
COc1cccc(C2CO2)c1 (centres undefined) | > 200 µM | 151 µM | –

From PubChem BioAssay AID179 (DTP/NCI, 2004)
